# Paper PMC4109836, “Analysis of the co-operative interaction between the allosterically regulated proteins GK and GKRP using tryptophan fluorescence” (Biochemical Journal, 2014)
# Substitutions are numbered along the chain they refer to.
# What was measured:
# [1] = biological target: T1, hGKRP (0.3 μM)–GK-W99R/W167F/W257F (1 μM) complex, GKRP-WT (Homo sapiens, UniProt P35557+Q14397, W167F/W257F/W99R); experiment: Ligand binding by / disassembly of GKRP-WT–GK-W99R/W167F/W257F complex by TF of hGKRP
# T1 construct: FLAG; GST (cleaved yes); made in house; host or cells: Escherichia coli
# T1 sequence (Q14397 1-625): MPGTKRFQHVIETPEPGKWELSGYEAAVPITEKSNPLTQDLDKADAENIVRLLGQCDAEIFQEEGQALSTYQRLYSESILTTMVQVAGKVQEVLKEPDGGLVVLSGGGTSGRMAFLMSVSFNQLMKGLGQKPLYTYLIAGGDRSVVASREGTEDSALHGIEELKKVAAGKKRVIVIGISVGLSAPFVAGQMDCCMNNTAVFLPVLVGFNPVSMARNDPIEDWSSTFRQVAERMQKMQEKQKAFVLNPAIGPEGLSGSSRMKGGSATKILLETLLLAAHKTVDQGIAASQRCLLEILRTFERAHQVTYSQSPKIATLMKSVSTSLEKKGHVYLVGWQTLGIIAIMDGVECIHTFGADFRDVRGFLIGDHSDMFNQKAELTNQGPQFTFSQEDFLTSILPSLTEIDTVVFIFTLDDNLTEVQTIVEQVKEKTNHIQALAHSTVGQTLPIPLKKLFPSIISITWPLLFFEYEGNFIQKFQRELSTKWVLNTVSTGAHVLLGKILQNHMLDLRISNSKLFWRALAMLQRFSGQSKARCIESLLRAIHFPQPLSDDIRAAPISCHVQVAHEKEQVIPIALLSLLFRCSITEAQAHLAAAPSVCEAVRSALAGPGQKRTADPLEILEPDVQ
# T1 sequence (P35557 1-465 W99R/W167F/W257F): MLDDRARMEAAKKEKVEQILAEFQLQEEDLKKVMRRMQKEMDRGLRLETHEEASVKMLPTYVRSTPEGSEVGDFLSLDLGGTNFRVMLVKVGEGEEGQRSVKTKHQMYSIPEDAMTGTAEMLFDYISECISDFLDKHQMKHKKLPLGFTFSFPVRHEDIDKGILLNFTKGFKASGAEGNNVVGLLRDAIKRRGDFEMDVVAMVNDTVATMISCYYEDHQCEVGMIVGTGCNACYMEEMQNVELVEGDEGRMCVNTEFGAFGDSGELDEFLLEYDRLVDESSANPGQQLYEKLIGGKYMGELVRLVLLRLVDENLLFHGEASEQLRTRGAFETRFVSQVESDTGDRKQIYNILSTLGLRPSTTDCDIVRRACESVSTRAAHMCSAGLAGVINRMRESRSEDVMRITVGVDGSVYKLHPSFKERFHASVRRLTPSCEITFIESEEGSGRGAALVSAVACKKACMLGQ
# Method: Spectra were measured with a Fluorolog-3-21 Jobin-Yvon Spex Instrument SA equipped with a 450 W Xenon lamp for excitation and a cooled R2658P Hamamatsu photomultiplier tube for detection. For all measurements, 90° geometry was employed and 295 nm excitation wavelengths were used to observe fluorescence emission in the 300–500 nm range. For TF, spectra slit width was set to provide a bandpath of 3 nm for excitation and 3 nm for emission. Spectra were corrected for instrumental response using Spex instrument software. A thermostatically controlled cell holder maintained sample temperature at 20°C. A thermocoupler was used to measure sample temperature. The buffer used contained 20 mM phosphate, 50 mM KCl, 1 mM EDTA and 1 mM DTT (pH 7.2).
# Fluorescence data were obtained via the stepwise addition of the appropriate amount of non-fluorescent GK-W99R/W167F/W257F to GKRP in a fluorescence cuvette. […] The change in GKRP protein fluorescence during titration was also measured using time-dependent scans. A manual procedure was used such that a typical titration with 10–12 additions required 20–25 min to perform. The same buffer as described above was routinely used unless stated otherwise. The bandpath was 0.5 nm at 295 nm for excitation and 12 nm at 340 nm for emission. […] For some graphical presentations the linear form of the Hill equation was used: log[F/(Fsat−F)]=H log x−H log KD [46].
# GK-T65W/W99R/W167F/W257F = biological target: T2, GK-T65W/W99R/W167F/W257F (Homo sapiens, UniProt P35557, T65W/W167F/W257F/W99R); experiment: GKA and glucose binding by GK-T65W/W99R/W167F/W257F measured by TF; details: 25°C
# T2 construct: GST (cleaved yes); made in house; host or cells: Escherichia coli
# T2 sequence (P35557 1-465 T65W/W99R/W167F/W257F): T1 sequence (P35557 1-465 W99R/W167F/W257F) with T65W
# GK-WT = biological target: T3, GK-WT (Homo sapiens, UniProt P35557); design: method as in ref 4 (a number printed in a supplementary file, which may have a reference list of its own: not looked up in the article's list); details: cited from earlier work
# T3 construct: GST (cleaved yes); made in house; host or cells: Escherichia coli
# T3 sequence (P35557 1-465): T1 sequence (P35557 1-465 W99R/W167F/W257F) with R99W, F167W, F257W
# GK (glucokinase) = details: cited from earlier work
# [2] = addition of 6.6 mM D-glucose, 0.3 μM GKRP and 1 μM GK, pH 7.2, mono ExpDecay fit
# [3] = ligand titration of 3:1 GK–GKRP-WT complex, 20°C
# [4] = D-glucose titration in the presence of GKA (20 μM)
structure (smiles),measurement,setting,value
"OC[C@H]1OC(O)[C@H](O)[C@@H](O)[C@@H]1O (stereo partly drawn) [D-Glucose, D-glucose]",A (amplitude) of time-dependent decrease in GKRP-WT TF,[1]; [2],0.04
same,τ of time-dependent decrease in GKRP-WT TF,[1]; [2],11 s
same,H,[1]; [3],1
same,ΔF (relative fluorescence change at 340 nm),[1]; [3],−0.065
same,Kd,"[1]; ligand titration of 3:1 GK–GKRP-WT complex, 20°C, read-out: Kd (apparent)",12 mM
same,H,GK-T65W/W99R/W167F/W257F; [4],1
same,Kd,GK-T65W/W99R/W167F/W257F; [4],0.74 mM
same,H,GK-T65W/W99R/W167F/W257F; D-glucose titration,1
same,Kd,GK-T65W/W99R/W167F/W257F; D-glucose titration,4.6 mM
same,H (glucose),GK-WT,1.77
same,glucose S0.5,GK-WT,7.5 mM
same,Hill coefficient of GK with respect to glucose,GK (glucokinase),approximately 1.7
same,affinity of GK for glucose,GK (glucokinase),approximately 7.5 mM
